In publication PMC8252726, “Automated Glycan Assembly of ^19F‐labeled Glycan Probes Enables High‐Throughput NMR Studies of Protein–Glycan Interactions” (Angewandte Chemie (International Ed. in English), 2021):

Experiments:
[1] = molecular target: T1, LecB (Pseudomonas aeruginosa, UniProt Q9HYN5); experiment: […] and CPMG NMR screening; format: binding; details: fucosylated F-glycans as a group
T1 construct: soluble lectin

[2] = molecular target: T2, BambL (Burkholderia ambifaria, UniProt Q0B4G1); experiment: […] NMR titration (ligand-observed); format: binding
T2 construct: gene Bamb_5415; soluble lectin; 15N-labeled for TROSY
T2 sequence (Q0B4G1 entry or part of it): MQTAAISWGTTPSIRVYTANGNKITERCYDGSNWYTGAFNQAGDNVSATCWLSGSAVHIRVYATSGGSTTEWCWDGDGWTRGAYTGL

[3] = test system: β‐galactosidase; experiment: real-time […] NMR of product formation; format: biochemical; details: Henry-Michaelis-Menten fit
[4] = molecular target: T3, Pdα26ST (Photobacterium damselae, UniProt O66375); experiment: CPMG […] NMR screening; format: binding; details: without donor CMP-Neu5Ac
T3 construct: gene bst
T3 sequence (O66375 16-675): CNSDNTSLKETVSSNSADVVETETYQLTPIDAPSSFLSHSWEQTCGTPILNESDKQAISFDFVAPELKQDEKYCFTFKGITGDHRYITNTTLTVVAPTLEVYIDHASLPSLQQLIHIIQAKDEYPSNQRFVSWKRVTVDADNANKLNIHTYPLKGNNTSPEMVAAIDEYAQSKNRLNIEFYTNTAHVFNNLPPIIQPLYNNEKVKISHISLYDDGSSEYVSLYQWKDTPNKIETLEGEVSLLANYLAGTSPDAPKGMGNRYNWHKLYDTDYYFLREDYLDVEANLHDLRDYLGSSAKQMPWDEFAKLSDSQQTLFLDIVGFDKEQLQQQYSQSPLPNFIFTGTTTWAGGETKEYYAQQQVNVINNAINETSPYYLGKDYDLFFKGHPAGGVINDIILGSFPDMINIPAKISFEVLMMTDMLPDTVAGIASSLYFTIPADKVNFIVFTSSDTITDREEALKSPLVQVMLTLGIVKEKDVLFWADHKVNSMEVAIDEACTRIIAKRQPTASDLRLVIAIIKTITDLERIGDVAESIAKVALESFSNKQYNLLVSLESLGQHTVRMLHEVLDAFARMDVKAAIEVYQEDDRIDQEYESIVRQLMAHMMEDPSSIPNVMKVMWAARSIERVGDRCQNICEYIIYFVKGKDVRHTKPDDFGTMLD

[5] = molecular target: T4, Pmα23ST (Pasteurella multocida, UniProt Q15KI8); experiment: CPMG […] NMR screening; format: binding; details: without donor; also sialylated with CMP-Neu5Ac
T4 construct: gene Pm0188
T4 sequence (Q15KI8 26-412): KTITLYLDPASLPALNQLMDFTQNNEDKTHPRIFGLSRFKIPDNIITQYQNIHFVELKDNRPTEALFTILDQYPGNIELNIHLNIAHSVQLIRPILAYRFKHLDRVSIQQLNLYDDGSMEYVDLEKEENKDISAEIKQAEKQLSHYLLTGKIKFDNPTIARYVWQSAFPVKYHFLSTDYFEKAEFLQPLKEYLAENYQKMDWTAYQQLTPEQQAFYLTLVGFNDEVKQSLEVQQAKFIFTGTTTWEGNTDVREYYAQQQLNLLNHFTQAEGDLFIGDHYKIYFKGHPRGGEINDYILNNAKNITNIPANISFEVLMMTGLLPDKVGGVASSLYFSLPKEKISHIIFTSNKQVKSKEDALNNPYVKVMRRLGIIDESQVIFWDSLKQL

T1 sequence (Q9HYN5 entry or part of it): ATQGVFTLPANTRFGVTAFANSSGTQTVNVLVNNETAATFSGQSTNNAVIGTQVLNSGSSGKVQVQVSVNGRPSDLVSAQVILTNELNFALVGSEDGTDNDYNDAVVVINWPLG

Row | Structure (SMILES) | 19F and CPMG NMR screening [1] | Kd [2] [µM] | Km [3] [µM] | CPMG 19F NMR screening [4] | CPMG 19F NMR screening [5]
1 | CC(=O)N[C@H]1[C@H](O[C@H]2[C@@H](O)[C@@H](CO)O[C@@H](O[C@H]3[C@H](F)[C@@H](O)[C@H](OCCCCCN)O[C@@H]3CO)[C@@H]2O)O[C@H](CO)[C@@H](O[C@@H]2O[C@H](CO)[C@H](O)[C@H](O)[C@H]2O[C@@H]2O[C@@H](C)[C@@H](O)[C@@H](O)[C@@H]2O)[C@@H]1O [F‐H type 2] | bacterial (LecA, LecB, and BambL) and mammalian (DC‐SIGN ECD) lectins preferred fucosylated glycans | 9 ± 2 |  |  | 
2 | NCCCCCO[C@@H]1O[C@H](CO)[C@@H](O[C@@H]2O[C@H](CO)[C@H](O)[C@H](O)[C@H]2O)[C@H](F)[C@H]1O [F‐Lac] |  |  | 86.5 ± 10.5 | Shorter non‐branched glycans (F‐Lac and F‐nLac4) showed stronger binding than longer branched ones | 
3 | CC(=O)N[C@H]1[C@H](O[C@H]2[C@@H](O)[C@@H](CO)O[C@@H](O[C@H]3[C@H](F)[C@@H](O)[C@H](OCCCCCN)O[C@@H]3CO)[C@@H]2O)O[C@H](CO)[C@@H](O[C@@H]2O[C@H](CO)[C@H](O)[C@H](O)[C@H]2O[C@@H]2O[C@@H](C)[C@@H](O)[C@@H](O)[C@@H]2O)[C@@H]1O[C@@H]1O[C@@H](C)[C@@H](O)[C@@H](O)[C@@H]1O [F‐Le^y] |  | 14 ± 2 |  |  | 
4 | CC(=O)N[C@H]1[C@H](O[C@H]2[C@@H](O)[C@@H](CO)O[C@@H](O[C@H]3[C@H](F)[C@@H](O)[C@H](OCCCCCN)O[C@@H]3CO)[C@@H]2O)O[C@H](CO)[C@@H](O[C@@H]2O[C@H](CO)[C@H](O)[C@H](O)[C@H]2O)[C@@H]1O [F‐nLac4] |  |  |  | Shorter non‐branched glycans (F‐Lac and F‐nLac4) showed stronger binding than longer branched ones | Shorter non‐branched glycans (F‐Lac and F‐nLac4) showed stronger binding than longer branched ones
